The values that follow come from US20110209699A1, “COMBINATION OF DEHYDROEPIANDROSTERONE OR DEHYDROEPIANDROSTERONE-SULFATE WITH A LIPOXYGENASE INHIBITOR FOR TREATMENT OF ASTHMA OR CHRONIC OBSTRUCTIVE PULMONARY DISEASE” (priority 2003, published 2011).

Data set [1] deals with rat peritoneal mast cells. The experiment in a line: Mast cell degranulation (histamine secretion) after compound 48/80. The data set is classed as cell-based. Conditions: at 0.1 uM; 0.1 μg/ml compound 48/80; 2 min at 37° C. The text has this:
Leukotrienes are synthesized—though not exclusively by the mast cell (Gilchrist, M., McCauley, S. D., & Befus, A. D. (2004) Expression, localization, and regulation of NOS in human mast cell lines: effects on leukotriene production. Blood 104, 462-469). We determined whether DHEA-sulfate would reduce mast cell degranulation after stimulation with compound 48/80 in rat peritoneal mast cells. Mast cell degranulation was quantified by measurement of histamine, another substance contained within the secretory granules of mast cells. The release of histamine is believed to parallel the release of leukotrienes.
Freshly isolated rat peritoneal mast cells (2×10^5 cells) were pre-incubated for 5 min at 37° C. in a Balanced Salt Solution containing 150 mM NaCl (pH 7.4), 2.7 mM KCl, 0.9 mM CaCl2, 4 mM Na2HPO4, 2.7 mM KH2PO4, 1.75 mg/ml BSA and 0.1 μg/ml compound 48/80.
Following incubation, the mixture is cooled to 4° C. then centrifuged at 4500 rpm for 5 min. The supernatant is collected and mixed for 30 min at 4° C. with 5% TCA (trichloroacetic acid) to cause protein precipitation. […]
The amount of secreted histamine is quantified by measuring the fluorescence intensity at λex=360 nm and λem=450 nm using a spectrofluorimeter (GeminiXS, Molecular Devices). The results are expressed as a percent inhibition of control histamine secretion.

Data set [2] in a line: Short-term solution stability of nebulizer formulation. It is filed as physicochemical. Conditions: 10 mg/mL in 0.12% NaCl, clear glass vials. The procedure:
Aliquots of this solution are filled into clear glass vials and stored at RT (24-26° C.) and at 40° C. The samples are checked daily for DHEA-S content, DHEA content, and appearance. For each time point, duplicate samples are withdrawn and diluted from each vial. […] The study is stopped on day three. […] The solution should easily be stable for the day of reconstitution in a clinical trial. The following section describes the aerosol properties of this formulation.

The nature of data set [3]: Solubility of DHEA-S as a function of NaCl concentration and temperature. The data set is classed as physicochemical. Conditions: for equilibrium constant Ksp=[DHEA-S-][Na+]: slope of solubility vs reciprocal sodium concentration. The text has this: Inhalation of pure water can produce a cough stimulus. […] The temperature effect is weaker at high NaCl concentrations.

Data set [4] relates to HT-29 SF cells. The experiment in a line: Reversal of DHEA effect on cell cycle. The data set is classed as cell-based, human. Conditions: 25 μM DHEA.
Data set [5] relates to HT-29 SF cells. The data set is described as follows: Reversal of DHEA-mediated growth inhibition. The data set is classed as cell-based, human. Conditions: 25 μM DHEA, 48 hour treatment; MVA 2 μM, SQ 80 μM, CH 15 μg/ml, RN 30 μM each, DN 20 μM each.
The test system of a further data set is Intracellular adenosine. The data set is described as follows: In vivo effect on adenosine levels in various rat tissues. The arrangement: species or system Fischer 344 rats. Conditions: for Intracellular adenosine (nmols)/mg protein, Brain: rat brain, control 0.5 ± 0.04. As to the method:
Folinic acid (50 mg/kg) was administered intraperitoneally once daily for fourteen days. […] Hearts were removed from animals and flash frozen in liquid nitrogen with 10 s of death. Liver and lungs were removed en bloc and flash frozen with 30 s of death. Brain tissue was subsequently dissected.

The nature of data set [6]: Physicochemical testing before and after micronization. As to conditions: for Particle size (D50%): laser diffraction; for Water (% w/w): Karl Fischer. As to the method:
Surface area is determined using five point BET analyses are performed with nitrogen as the adsorbing gas (P/Po=0.05 to 0.30) using a Micromeritics TriStar surface area analyzer. Particle size distributions are measured by laser diffraction using a Micromeritics Saturn Digisizer where the particles are suspended in mineral oil with sodium dioctyl sodium sulfosuccinate as a dispersing agent. Drug substance water content is measured by Karl Fischer titration (Schott Titroline KF). Pure water is used as the standard and all relative standard deviations for triplicates are less than 1%. Powder is added directly to the titration media.

Data set [7] concerns HT-29 SF cells. The data set is described as follows: DHEA effect on cell cycle (flow cytometry). The data set is classed as cell-based, human. As to conditions: 25, 50 or 200 μM; 24, 48, 72 hours; propidium iodide DNA content. For orientation: A flow cytometer gives signals particle by particle.
Data set [8] concerns HT-29 SF cells. The data set is described as follows: DHEA effect on cell growth (Coulter counter). As to conditions: 0, 12.5, 25, 50 or 200 μM; cell number at 0, 24, 48, 72 hours.
Method: Cell cultures, HT-29 SF cells, which represent a subline of HY-29 cells (ATCC, Rockville, Md.) and are adapted for growth in completely defined serum-free PC-1 medium (Ventrex, Portland, Me.), were obtained. Stock cultures were maintained in this medium at 37° C. (in a humidified atmosphere containing 5% CO2).
Data set [9] can be described thus: HPLC analysis of drug degradation during jet milling micronization. As to conditions: single and double pass jet-milled powder vs unmilled standard, HPLC peak area. It is filed as physicochemical. As to the method:
Approximately 1 g sample was passed through the jet mill, once, and approximately 2 g sample were passed through the jet mill twice. […] The resulting solution was sonicated for 3 minutes and appeared fully dispersed. The dispersed solutions were tested on a Malvern Mastersizer X with a small volume sampler (SVS) attachment. One sample of dispersed material was tested 5 times. The median particle size or D (v, 0.5) of unmilled material was 52.56 μm and the % RSD (relative standard deviation) was 7.61 for the 5 values. The D (v, 0.5) for a single pass through the jet mill was 3.90 μm and the % RSD was 1.27, and the D (v, 0.5) from a double pass through the jet mill 3.25 μm and the % RSD was 3.10.
Two vials (A; single-pass; 150 mg) and (B double-pass; 600 mg) of the micronized drug were available for determining drug degradation during jet milling micronization. […] The chromatographic peak area for the HPLC assay of the unmilled drug standard solution (10 mg/ml) gave a value of 23,427. […] The chromatographic peak areas for vials A and B were 11,979 and 11,677, respectively.

The mark [10] stands for this setting: calculated for 20 mM Na+ (0.12% NaCl), Ksp 1316 mM^2, 15° C.

Structures are written as SMILES.

For the compound `C[C@]12CC[C@H](OS(=O)(=O)[O-])CC1=CC[C@@H]1[C@@H]2CC[C@]2(C)C(=O)CC[C@@H]12.[Na+]` [DHEA-S, sodium dehydroepiandrostenone sulfate], in data set [1], the “maximal effect, percent inhibition of control histamine secretion” value came to 69.9%. Also, the “solution appearance on storage” value in [2] (40° C.) is “became cloudy after two days of storage”; in data set [2] (RT (24-26° C.)), “slight precipitate is observed on the third day”. Moreover, the “equilibrium constant Ksp=[DHEA-S-][Na+]” value was found to be 2236 mM^2 in data set [3] (RT (24-25° C.)) and 665 mM^2 in data set [3] (refrigerated (7-8° C.)). Moreover, in data set [3] (setting [10]), the “estimated DHEA-S solution concentration” value was 10.7 mg/mL. In addition, in [3] (setting [10]), the “estimated DHEA-S- solution concentration” value is 27.5 mM.
For the compound `CC(C)CCC[C@@H](C)[C@H]1CC[C@H]2[C@@H]3CC=C4C[C@@H](O)CC[C@]4(C)[C@H]3CC[C@]12C` [CH, cholesterol], the “prevention of DHEA-induced S phase depletion by medium supplement” value with HT-29 SF cells [4] (48 hours) is “very little effect”; in the data set with HT-29 SF cells [4] (72 hours), “no effect”. For the same compound, the “reversal of DHEA-induced growth inhibition by medium supplement” value with HT-29 SF cells [5] is recorded as “no such effect”.
Consider `C[C@@](O)(CCO)CC(=O)O` [MVA, mevalonic acid], for which the figures for the “prevention of DHEA-induced S phase depletion by medium supplement” value in the data set on HT-29 SF cells [4] (48 hours) and in the data set on HT-29 SF cells [4] (72 hours) were “partially prevented this effect” and “not after 72 hours”, respectively. In addition, in the data set on HT-29 SF cells [5], the “reversal of DHEA-induced growth inhibition by medium supplement” value is given as “partially overcome”.
As to `C[C@]12CCC(=O)C=C1CC[C@@H]1[C@@H]2CC[C@@]2(C)[C@H]1CC[C@]2(C)O` [Methyltestosterone], the “Intracellular adenosine (nmols)/mg protein, Brain” value in the data set on Intracellular adenosine (methyltestosterone 120 mg/kg, alone or + folinic acid 50 mg/kg, mean ± SEM) amounted to 0.32 ± 0.03 nmols/mg protein. Moreover, in the data set with Intracellular adenosine (rat heart, methyltestosterone 120 mg/kg, alone or + folinic acid 50 mg/kg, mean ± SEM, control 10.6 ± 0.6), the “Intracellular adenosine (nmols)/mg protein, Heart” value (“Intracellular adenosine … Heart” below) is 6.0 ± 0.4 nmols/mg protein. For the same compound, the “Intracellular adenosine (nmols)/mg protein, Liver” value is on record as 5.1 ± 0.5 nmols/mg protein in the data set on Intracellular adenosine (rat liver, methyltestosterone 120 mg/kg, mean ± SEM, control 14.5 ± 1.0) and 16.5 ± 0.9 nmols/mg protein in the data set on Intracellular adenosine (rat, in vivo).
For `CC(C)=CCC/C(C)=C/CC/C(C)=C/CC/C=C(\C)CC/C=C(\C)CCC=C(C)C` [SQ, squalene], in the data set with HT-29 SF cells [5], the “reversal of DHEA-induced growth inhibition by medium supplement” value was “no such effect”.
For `CC12CCC3C(CC=C4CC(OS(=O)(=O)[O-])CCC43C)C1CCC2=O.[Na+]` (stereo not drawn) [DHEA-S dihydrate], the “Particle size (D50%)” value in [6] (Bulk, before micronization) came to 31 microns; in data set [6] (Micronized (jet mill)) it was 3.7 microns. Further, the “Water (% w/w)” value in [6] (Bulk) was 8.5 % w/w; in [6] (Micronized) it was 8.4 % w/w. For the same compound, the “Surface area (m^2/g)” value in data set [6] (Micronized, five point BET) was determined as 4.9 m^2/g.
In the case of `C[C@]12CC[C@H](O)CC1=CC[C@@H]1[C@@H]2CC[C@]2(C)C(=O)CC[C@@H]12` [DHEA, 3β-hydroxyandrost-5-en-17-one], the “effect on cell cycle distribution” value in the data set on HT-29 SF cells [7] was “G1 block in HT-29 SF cells in a time- and dose-dependent manner”. Also, the “Intracellular adenosine … Heart” value in the data set with Intracellular adenosine (rat, in vivo) was 6.7 ± 0.5. In addition, in data set [3] (water), the solubility in water result is “insoluble”. The inhibition of growth result in the data set with HT-29 SF cells [8] was “time- and dose-dependent inhibition of growth”.
In the case of `Nc1nc(=O)c2c([nH]1)NCC(CNc1ccc(C(=O)N[C@@H](CCC(=O)O)C(=O)O)cc1)N2C=O` (mixture of isomers) [Folinic Acid], in the data set on Intracellular adenosine (once daily 14 days, DHEA 300 mg/kg or methyltestosterone 40 mg/kg by gavage, folinic acid 50 mg/kg i.p., alone or combined, mean ± SEM), the “Intracellular adenosine (nmols)/mg protein, Brain” value was found to be 0.72 ± 0.09 nmols/mg protein. The “Intracellular adenosine … Heart” value with Intracellular adenosine (rat heart, once daily 14 days, DHEA 300 mg/kg or methyltestosterone 40 mg/kg by gavage, folinic acid 50 mg/kg i.p., alone or combined, mean ± SEM, control 10.6 ± 0.6) was determined as 12.4 ± 2.1 nmols/mg protein. Besides, the “Intracellular adenosine (nmols)/mg protein, Liver” value with Intracellular adenosine (rat liver, once daily 14 days, DHEA 300 mg/kg or methyltestosterone 40 mg/kg by gavage, folinic acid 50 mg/kg i.p., alone or combined, mean ± SEM, control 14.5 ± 1.0) was 16.4 ± 2.4 nmols/mg protein. The “adenosine levels when administered alone” value with Intracellular adenosine (rat, in vivo) is on record as “increase in adenosine levels for all organs studied”. In addition, the “effect of coadministration on steroid-mediated adenosine depletion” value with Intracellular adenosine (rats, folinic acid 50 mg/kg i.p. with DHEA or methyltestosterone, 14 days) is “completely abrogated steroid-mediated adenosine depletion”.
Consider `C[C@]12CC[C@H](OS(=O)(=O)[O-])CC1=CC[C@@H]1[C@@H]2CC[C@]2(C)C(=O)CC[C@@H]12.[Na+]` [Anhydrous DHEA-S], for which, in data set [9], the “drug degradation during jet milling micronization” value was “no detectable degradation”.
